Reference: publication PMC6720019 (Pharmaceutical Biology, 2019)

Tests used:
Assay type in all cases: in vitro ADME
Conditions in all cases: 100 μM KF, pooled HLMs
CYP2A6 = target: T1, CYP2A6 (Homo sapiens, UniProt P11509); assay: CYP2A6 inhibition in pooled human liver microsomes (coumarin 7-hydroxylation)
T1 construct: effects of KF on eight major CYP isoforms in human liver microsomes (HLMs); from tissue; host or cells: human liver microsomes
T1 sequence (P11509 1-494): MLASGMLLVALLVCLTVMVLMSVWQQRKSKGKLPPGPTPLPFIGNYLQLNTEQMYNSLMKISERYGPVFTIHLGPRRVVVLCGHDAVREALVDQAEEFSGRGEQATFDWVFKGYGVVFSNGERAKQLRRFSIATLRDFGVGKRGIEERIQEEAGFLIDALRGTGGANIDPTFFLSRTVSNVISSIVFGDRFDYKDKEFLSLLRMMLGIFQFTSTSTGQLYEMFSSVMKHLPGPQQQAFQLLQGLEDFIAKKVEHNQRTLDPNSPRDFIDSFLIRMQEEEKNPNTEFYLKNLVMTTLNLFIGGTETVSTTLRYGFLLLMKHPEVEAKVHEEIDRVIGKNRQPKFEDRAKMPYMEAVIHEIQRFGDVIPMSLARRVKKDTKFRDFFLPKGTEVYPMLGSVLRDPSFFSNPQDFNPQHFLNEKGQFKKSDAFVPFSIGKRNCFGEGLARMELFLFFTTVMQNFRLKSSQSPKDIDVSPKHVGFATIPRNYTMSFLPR
Protocol: (§1) All incubations were performed in triplicate, and the mean values were utilized. The typical incubation systems contained 100 mM potassium phosphate buffer (pH 7.4), NADPH generating system (1 mM NADP^+, 10 mM glucose-6-phosphate, 1 U/mL of glucose-6-phosphate dehydrogenase, and 4 mM MgCl2), the appropriate concentration of HLM, a corresponding probe substrate and KF (or positive inhibitor for different probe reactions) in a final volume of 200 μL.
(§2) The concentration of KF was 100 μM according literatures (Lang et al. [2016]; Liu et al. [2017]; Zhang et al. [2019]), and the positive inhibitor concentrations were as follows: 10 μM furafylline for CYP1A2, 1 μM ketoconazole for CYP3A4, 10 μM tranylcypromine for CYP2A6, 50 μM clomethiazole for CYP2E1, 10 μM quinidine for CYP2D6, 10 μM sulfaphenazole for CYP2C9, 50 μM tranylcypromine for CYP2C19, 5 μM montelukast for CYP2C8. Probe substrates, positive inhibitors (except for dextromethorphan and quinidine which were dissolved in water) and KF were dissolved in methanol, with a final concentration of 1% (v/v), and 1% neat methanol was added to the incubations without inhibitor. […] The instrument used in this study were Agilent 1260 series instrument with DAD and FLD detector, and the quantitative assay for the corresponding metabolites was performed as previously reported (Lang et al. [2016]; Zhang et al. 2016). […]

CYP2E1 = target: T2, CYP2E1 (Homo sapiens, UniProt P05181); assay: CYP2E1 inhibition in pooled human liver microsomes (chlorzoxazone 6-hydroxylation)
T2 construct: effects of KF on eight major CYP isoforms in human liver microsomes (HLMs); from tissue; host or cells: human liver microsomes
T2 sequence (P05181 whole entry, canonical isoform): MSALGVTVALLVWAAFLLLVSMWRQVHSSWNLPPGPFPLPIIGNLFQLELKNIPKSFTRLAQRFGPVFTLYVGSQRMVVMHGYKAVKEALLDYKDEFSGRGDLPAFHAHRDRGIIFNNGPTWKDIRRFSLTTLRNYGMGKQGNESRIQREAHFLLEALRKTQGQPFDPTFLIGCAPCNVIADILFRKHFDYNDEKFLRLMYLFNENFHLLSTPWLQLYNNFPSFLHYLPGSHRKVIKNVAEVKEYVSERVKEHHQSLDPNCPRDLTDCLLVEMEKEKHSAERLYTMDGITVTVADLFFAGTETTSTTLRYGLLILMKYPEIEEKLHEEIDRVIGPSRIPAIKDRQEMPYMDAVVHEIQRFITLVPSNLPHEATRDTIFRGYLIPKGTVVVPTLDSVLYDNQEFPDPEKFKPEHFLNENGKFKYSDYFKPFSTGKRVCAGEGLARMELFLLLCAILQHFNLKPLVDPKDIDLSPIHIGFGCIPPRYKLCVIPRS
Protocol: as §1, §2

CYP2D6 = target: T3, CYP2D6 (Homo sapiens, UniProt P10635); assay: CYP2D6 inhibition in pooled human liver microsomes (dextromethorphan O-demethylation)
T3 construct: effects of KF on eight major CYP isoforms in human liver microsomes (HLMs); from tissue; host or cells: human liver microsomes
T3 sequence (P10635 whole entry, canonical isoform): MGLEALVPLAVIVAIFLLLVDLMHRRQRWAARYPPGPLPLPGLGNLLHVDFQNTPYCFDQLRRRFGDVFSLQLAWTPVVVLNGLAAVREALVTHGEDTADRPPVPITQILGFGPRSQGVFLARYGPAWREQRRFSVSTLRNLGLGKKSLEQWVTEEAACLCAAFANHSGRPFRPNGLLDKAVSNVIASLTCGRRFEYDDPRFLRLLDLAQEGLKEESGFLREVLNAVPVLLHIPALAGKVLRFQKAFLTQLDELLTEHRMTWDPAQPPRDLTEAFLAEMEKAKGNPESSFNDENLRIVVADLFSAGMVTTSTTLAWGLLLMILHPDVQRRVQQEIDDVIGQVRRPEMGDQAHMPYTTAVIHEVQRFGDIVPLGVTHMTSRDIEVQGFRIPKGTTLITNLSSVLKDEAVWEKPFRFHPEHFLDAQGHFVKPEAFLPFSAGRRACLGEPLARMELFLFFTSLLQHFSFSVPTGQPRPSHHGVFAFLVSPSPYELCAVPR
Protocol: as §1, §2

CYP2C19 = target: T4, CYP2C19 (Homo sapiens, UniProt P33261); assay: CYP2C19 inhibition in pooled human liver microsomes (S-mephenytoin 4-hydroxylation)
T4 construct: effects of KF on eight major CYP isoforms in human liver microsomes (HLMs); from tissue; host or cells: human liver microsomes
T4 sequence (P33261 whole entry, canonical isoform): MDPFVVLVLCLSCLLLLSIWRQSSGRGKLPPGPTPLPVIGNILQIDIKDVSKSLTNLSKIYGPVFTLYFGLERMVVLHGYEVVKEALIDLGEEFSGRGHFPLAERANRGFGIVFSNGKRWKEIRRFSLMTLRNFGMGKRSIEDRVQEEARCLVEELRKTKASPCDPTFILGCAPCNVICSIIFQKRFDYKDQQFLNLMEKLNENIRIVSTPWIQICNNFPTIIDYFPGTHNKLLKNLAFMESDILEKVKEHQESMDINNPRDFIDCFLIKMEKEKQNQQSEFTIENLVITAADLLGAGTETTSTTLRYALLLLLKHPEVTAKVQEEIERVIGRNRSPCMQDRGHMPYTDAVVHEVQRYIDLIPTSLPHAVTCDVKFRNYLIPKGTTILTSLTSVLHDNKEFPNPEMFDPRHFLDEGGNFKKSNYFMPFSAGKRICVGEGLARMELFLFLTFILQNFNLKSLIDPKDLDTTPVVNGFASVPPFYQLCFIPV
Protocol: as §1, §2

CYP2C8 = target: T5, CYP2C8 (Homo sapiens, UniProt P10632); assay: CYP2C8 inhibition in pooled human liver microsomes (paclitaxel 6α-hydroxylation)
T5 construct: effects of KF on eight major CYP isoforms in human liver microsomes (HLMs); from tissue; host or cells: human liver microsomes
T5 sequence (P10632 1-490): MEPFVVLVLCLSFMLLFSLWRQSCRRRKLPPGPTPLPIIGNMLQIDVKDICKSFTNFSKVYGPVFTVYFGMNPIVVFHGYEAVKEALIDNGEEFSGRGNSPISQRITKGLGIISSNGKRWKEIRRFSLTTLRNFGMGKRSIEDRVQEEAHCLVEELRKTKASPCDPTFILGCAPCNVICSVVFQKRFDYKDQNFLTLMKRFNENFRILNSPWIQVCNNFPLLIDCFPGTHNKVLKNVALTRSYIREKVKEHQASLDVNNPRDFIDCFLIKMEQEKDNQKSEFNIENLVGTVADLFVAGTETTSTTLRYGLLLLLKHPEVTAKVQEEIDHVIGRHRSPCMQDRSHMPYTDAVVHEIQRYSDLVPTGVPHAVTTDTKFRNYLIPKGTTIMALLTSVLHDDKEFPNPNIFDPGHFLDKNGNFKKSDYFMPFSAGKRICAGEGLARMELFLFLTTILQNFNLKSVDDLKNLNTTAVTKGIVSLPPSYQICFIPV
Protocol: as §1, §2

C[C@@H]1O[C@@H](Oc2cc(O)c3c(=O)c(O[C@@H]4O[C@@H](C)[C@H](O)[C@@H](O)[C@H]4O)c(-c4ccc(O)cc4)oc3c2)[C@H](O)[C@H](O)[C@H]1O [KF, Kaempferitrin]
did not inhibit: Inhibition of CYP2A6 activity (CYP2A6) | Inhibition of CYP2E1 activity (CYP2E1) | Inhibition of CYP2D6 activity (CYP2D6) | Inhibition of CYP2C19 activity (CYP2C19) | Inhibition of CYP2C8 activity (CYP2C8)
